Experimental findings from US20230399339A1, “HETEROCYCLIC AMIDE DERIVATIVE, PREPARATION METHOD THEREFOR, AND APPLICATION THEREOF” (SHENZHEN ZHONGGE BIOLOGICAL TECHNOLOGY CO., LTD., priority 2021, published 2023) are described below.

The test has as its target T1, EP4 receptor (Homo sapiens, UniProt P35408).
T1 construct: expressed in transfected cells; host or cells: Flpin-CHO-EP4 cells (Flp-In CHO host, Chinese hamster ovary)
The test can be described thus: Antagonist activity against EP4 receptor by cAMP assay. It is filed as cell-based. Conditions: Flpin-CHO-EP4 cells, PGE2-stimulated cAMP; initial concentration 50 nM, dilution times 4. Here is the method:
(a) Antagonist Activity Against EP4 Receptor by cAMP Assay:
Experiment Methods: Inoculating Flpin-CHO-EP4 cells (8000 cells/well) into a 384-well plate (6007680-50, PE) with an assay buffer (1×HBSS+20 mM HEPES+0.1% BSA+500 μM IBMX). Preparing 8× compound working solution with the assay buffer. Adding 2.5 μL of the 8× compound working solution to each well in the cell plate according to the plate map and incubating at 37° C. for 10 min. Preparing 8×PGE2 (400 nM) with the assay buffer. Adding 2.5 μL of the 8×PGE2 per well in the cell plate and incubating at 37° C. for 30 min. Diluting the Eu-cAMP tracer (1/50) with a lysis buffer and adding 10 μL per well in the test plate. Diluting Ulight-anti-cAMP (1/150) with a lysis buffer and adding 10 μL per well in the test plate. Incubating at room temperature for 1 h. Reading wavelength signal values at 665 nm and 615 nm on the Envision 2105 plate reader.
On the technique in general: Changes in cAMP serve as a functional read-out for many G protein-coupled receptors.

T1 sequence (P35408 whole entry): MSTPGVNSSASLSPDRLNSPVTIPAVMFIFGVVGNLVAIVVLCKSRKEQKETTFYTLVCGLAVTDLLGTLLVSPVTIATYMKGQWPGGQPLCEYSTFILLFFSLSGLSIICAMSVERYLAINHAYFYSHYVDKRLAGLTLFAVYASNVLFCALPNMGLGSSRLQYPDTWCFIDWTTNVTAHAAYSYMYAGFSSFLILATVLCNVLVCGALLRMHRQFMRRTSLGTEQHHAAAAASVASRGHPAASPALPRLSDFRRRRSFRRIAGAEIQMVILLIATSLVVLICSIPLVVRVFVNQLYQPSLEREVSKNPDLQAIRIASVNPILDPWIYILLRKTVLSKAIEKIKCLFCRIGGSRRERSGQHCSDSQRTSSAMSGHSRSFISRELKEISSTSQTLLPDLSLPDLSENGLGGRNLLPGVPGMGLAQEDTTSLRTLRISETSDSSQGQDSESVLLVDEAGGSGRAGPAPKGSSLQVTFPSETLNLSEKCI

As usually defined, the IC50 is the point on the concentration scale where inhibition reaches its midpoint. High values mean weaker potency, low ones greater potency. Turning to `Cc1sc2ccn(Cc3ccc(C(F)(F)F)cc3)c2c1C(=O)NC1(c2ccc(C(=O)O)cc2)CC1` [Control compound], the IC50 was determined as 351 pM.

Consider `Cc1sc2ccn(Cc3ccc(S(F)(F)(F)(F)F)cc3)c2c1C(=O)NC1(c2ccc(C(=O)O)cc2)CC1` [Example 1, 4-(1-{[2-methyl-4-(4-(pentafluorothio)benzyl)-4H-thieno[3,2-b]pyrrole-3-carbonyl]amino}-cyclopropyl)carboxylic acid], for which the IC50 was found to be 122 pM.
